In paper PMC4102551, “Screening and Characterisation of Antimicrobial Properties of Semisynthetic Betulin Derivatives” (PLoS ONE, 2014):
In brackets after ≈: the same amount, converted by molar mass. Several values for one entry are separate records, joined by “and”; a condition that tells them apart may be missing. Identical values can stand only once.

How the values were obtained:
Huh-7 cells = experiment: in vitro; assay type: cell-based, human; conditions: 24 h exposure; for Cytotoxicity (%) Huh-7 cells: 50 µM, ATP content, 5% FBS
Description: Huh-7 cells (derived from human hepatocellular carcinoma) were obtained as a gift from Prof. Ralf Bartenschlager (University of Heidelberg, Germany) and used for assessing the cytotoxicity against mammalian cells. HL cells (a heteroploid cell line used for propagating respiratory viruses) were used as a host cell line in the host-pathogen co-culture assay. […] Both cell lines were cultured at 37°C, 5% CO2 and 95% humidity.
The effect of the betulin derivatives on metabolic activity of Huh-7 cells was evaluated by measuring the intracellular ATP content of the cells after 24 h exposure to the compounds. In brief, cells were seeded at 20000 cells/well on white-walled microplates (PerkinElmer) and incubated at 37°C, 5% CO2 and 95% humidity. After culturing the cells overnight, the medium was replaced with the assay media (5% FBS) containing the sample and the cells were incubated for 24 h. Polymyxin B sulphate (15000 IU/mL) was used as a positive control. Following the incubation period, Promega’s CellTiter-Glo Cell Viability Assay was used to determine the intracellular ATP levels according to the manufacturer’s instructions. Cells were washed with 100 µL 6.7 mM PBS, pH 7.4 and 50 µL of fresh assay media and 50 µL of the CellTiter-Glo reagent were added into the wells. After 2 min shaking, followed by 10 min incubation at RT, luminometric signal was measured using Varioskan Flash plate reader (Thermo Fisher Scientific).

E. aerogenes ATCC 13048 = experiment: Broth microdilution assay, E. aerogenes; assay type: cell-based, Enterobacter aerogenes; conditions: for Inhibitory effect (%) E. aerogenes ATCC 13048: 50 µM, 24 h, inhibition of growth, mean ± SD
Description: (§1) Clinically used antimicrobial agents were selected based on international guidelines for antimicrobial testing and were utilised as reference compounds in the antimicrobial assays. The compounds were purchased from Sigma, Fluka and ICN Biomedicals. Stock solutions of the reference compounds were prepared either in double distilled sterile MilliQ water or in DMSO. Water solutions were sterilised through a 0.22 µm filter (VWR International). […] During the primary screening, these reference compounds were used as positive controls at the determined MIC on every plate.
(§2) Gram-negative strains Escherichia coli (ATCC 25922), Enterobacter aerogenes (ATCC 13048) and Pseudomonas aeruginosa (ATCC 27853), Gram-positive strains Staphylococcus aureus (ATCC 25923) and Enterococcus faecalis (ATCC 29212), and fungal strain Candida albicans (ATCC 90028) were obtained from Microbiologics Inc., and used for the antimicrobial screening. Strains were selected according to the guidelines set for clinical laboratories by Clinical and Laboratory Standards Institute [CLSI, formerly National Committee on Clinical Laboratory Standards [22]] and the European Committee on Antimicrobial Susceptibility Testing (EUCAST). Bacterial strains were grown on Mueller Hinton II Agar (MHA) (BBL, BD) and Mueller Hinton II broth (MHB) (BBL, BD), whereas Candida was initiated on Sabouraud Dextrose Agar (SDA) (Difco, BD) plates. Media were prepared into MilliQ water according to manufacturer’s instruction and autoclaved at 121°C for 15 min. Bacteria were plated on MHA plates and incubated at 37°C for 16–18 h. Bacterial suspension for the assays was prepared by subculturing the bacteria into MHB and by incubating at 37°C for 16–20 h at 110 rpm prior to the assay. Candida strain was grown on SDA plates at 27°C for 16–18 h and suspended into sterile 0.9% saline for the assay.
(§3) Antimicrobial screening assays were performed by broth microdilution method following the guidelines of CLSI and EUCAST. Bacterial suspensions were prepared as mentioned earlier and diluted with MHB to obtain a final inoculum of 5×10^5 colony-forming units (cfu)/mL in the assay for all the bacteria (based on OD620 values previously calibrated against plate counts). Candida suspension was prepared into sterile 0.9% saline solution as stated earlier. […] Assays were carried out in clear 96-well microtitre plates and initiated by dispensing an equal volume of microbial suspension and sample solution diluted into the assay medium into the wells. The plates were incubated for 24 h at 37°C (for Candida the incubation was at 35°C for 48 h) with agitation. Absorbance was measured at 620 nm with Victor plate reader (Wallac 1420, Perkin Elmer) at 0, 4 and 24 h with the bacteria, and at 0, 24 and 48 h with Candida. The antimicrobial activity of the samples was calculated from the absorbance values by comparing to the controls, and expressed as a percentage inhibition of growth. All the betulin derivatives were first assayed at the single concentration of 50 µM (two separate experiments, each with three replicates). […] The MIC90 value was expressed as the lowest concentration of compound that inhibited the microbial growth by >90%. The MIC90 results are means of three replicates from two separate experiments.

E. coli ATCC 25922 = experiment: Broth microdilution assay, E. coli; assay type: cell-based, Escherichia coli; conditions: for Inhibitory effect (%) E. coli ATCC 25922: 50 µM, 24 h, inhibition of growth, mean ± SD
Description: as §1, §2, §3

E. faecalis ATCC 29212 = experiment: Broth microdilution assay, E. faecalis; assay type: cell-based, Enterococcus faecalis; conditions: 50 µM, 24 h, inhibition of growth, mean ± SD
Description: as §1, §2, §3

P. aeruginosa ATCC 27853 = experiment: Broth microdilution assay, P. aeruginosa; assay type: cell-based, Pseudomonas aeruginosa; conditions: for Inhibitory effect (%) P. aeruginosa ATCC 27853: 50 µM, 24 h, inhibition of growth, mean ± SD
Description: as §1, §2, §3

S. aureus ATCC 25923 = experiment: Broth microdilution assay, S. aureus; assay type: cell-based, Staphylococcus aureus; conditions: 50 µM, 24 h, inhibition of growth, mean ± SD
Description: as §1, §2, §3

C. albicans ATCC 90028 = experiment: Broth microdilution assay, C. albicans; assay type: cell-based, Candida albicans; conditions: for Inhibitory effect (%) C. albicans ATCC 90028: 50 µM, 48 h at 35°C, inhibition of growth, mean ± SD
Description: as §1, §2, §3

[1] = lowest concentration inhibiting growth by >90%

Row | Compound | IC50 cytotoxicity Huh-7 cells (positive control) (Huh-7 cells; ATP assay) | Inhibitory effect (%) E. aerogenes ATCC 13048 (E. aerogenes ATCC 13048) | Inhibitory effect (%) E. coli ATCC 25922 (E. coli ATCC 25922) | Inhibitory effect (%) E. faecalis ATCC 29212 (E. faecalis ATCC 29212) | Inhibitory effect (%) P. aeruginosa ATCC 27853 (P. aeruginosa ATCC 27853) | Inhibitory effect (%) S. aureus ATCC 25923 (S. aureus ATCC 25923) | Inhibitory effect (%) C. albicans ATCC 90028 (C. albicans ATCC 90028) | Cytotoxicity (%) Huh-7 cells (Huh-7 cells) | MIC90 of positive control, E. aerogenes (E. aerogenes ATCC 13048; [1]) | MIC90 of positive control, E. coli (E. coli ATCC 25922; [1]) | MIC90 of positive control, P. aeruginosa (P. aeruginosa ATCC 27853; [1]) | MIC90 (C. albicans ATCC 90028; Candida albicans, ATCC90028, lowest concentration inhibiting growth by >90%, read-out: MIC90 of positive control, C. albicans)
1 | Polymyxin B sulphate [reference compound] | 9361 IU/mL |  |  |  |  |  |  |  |  |  |  | 
2 | CC(C)C12CCC3(COC(=O)C4CCCCC4)CCC4(C)C(=C31)C(CC1C3(C)CCC(OC(=O)C5CCCCC5)C(C)(C)C3CCC14C)n1c(=O)n(C(C)(C)C)c(=O)n12 (stereo not drawn) [Compound 51] |  | 10.8±2.5% | -3.2±1.0% | 62.3±0.3% | 5.9±0.3% | 7.5±3.8% | -96.4±22.3% | -10.0±2.6% |  |  |  | 
3 | C=C(C)[C@@H]1CC[C@]2(COC(=O)C3C(C=C(C)C)C3(C)C)CC[C@]3(C)[C@H](CC[C@@H]4[C@@]5(C)CC[C@H](O)C(C)(C)[C@@H]5CC[C@]43C)[C@@H]12 (stereo partly drawn) [Compound 3, 28-O-chrysanthemoylbetulin] |  | 10.6±0.5% | 0.3±1.7% | 46.9±6.0% | 4.4±1.4% | -23.2±11% | 35.4±3.8% | -5.8±2.5% |  |  |  | 
4 | C=C(C)[C@@H]1CC[C@]2(C#N)CC[C@]3(C)[C@H](CC[C@@H]4[C@@]5(C)CCC(=NOC(C)=O)C(C)(C)[C@@H]5CC[C@]43C)[C@@H]12 [Compound 32] |  | 12.0±3.0% | 5.5±1.5% | 57% and 56.6±7.0% | 5.7±1.7% | 5.5±1.9% | -43.8±12.6% | -7.2±3.0% |  |  |  | 
5 | CC(C)C12CCC3(CO)CCC4(C)C(=C31)C(CC1C3(C)CCC(O)C(C)(C)C3CCC14C)n1c(=O)n(-c3ccccc3)c(=O)n12 (stereo not drawn) [Compound 44] |  | 11.7±1.1% | -1.0±0.3% | 57.1±7.1% | 3.3±1.1% | 5.7±2.2% | -25.4±8.0% | 2.8±5.3% |  |  |  | 
6 | C=C(C)[C@@H]1CC[C@]2(COC(=O)c3cccnc3)CC[C@]3(C)[C@H](CC[C@@H]4[C@@]5(C)CC[C@H](O)C(C)(C)[C@@H]5CC[C@]43C)[C@@H]12 [Compound 6, 28-O-nicotinoylbetulin] |  | 7.5±1.3% | -0.6±6.8% | 60.1±4.0% | 2.2±2.2% | -17.7±2.0% | 36.7±7.6% | -0.4±3.4% |  |  |  | 
7 | COc1cccc(-n2c(=O)n3n(c2=O)C2(C(C)C)CCC4(COC(C)=O)CCC5(C)C(=C42)C3CC2C3(C)CCC(OC(C)=O)C(C)(C)C3CCC25C)c1 (stereo not drawn) [Compound 34] |  | 13.8±4.3% | 1.7±4.2% | 68.4±3.0% | 0.6±2.5% | 3.1±2.0% | -1.1±3.5% | 8.5±2.0% |  |  |  | 
8 | CCCCn1c(=O)n2n(c1=O)C1(C(C)C)CCC3(COC(C)=O)CCC4(C)C(=C31)C2CC1C2(C)CCC(OC(C)=O)C(C)(C)C2CCC14C (stereo not drawn) [Compound 42] |  | 10.6±3.5% | 1.7±5.2% | 67.5±3.7% | 1.0±0.4% | 1.5±1.0% | -12.0±11.8% | -8.3±1.3% |  |  |  | 
9 | CCC(=O)OCC12CCC3(C(C)C)C1=C1C(CC4C5(C)CCC(OC(=O)CC)C(C)(C)C5CCC4(C)C1(C)CC2)n1c(=O)n(C)c(=O)n13 (stereo not drawn) [Compound 45] |  | 10.8±6.9% | -4.3±7.0% | 41.6±2.8% | 3.7±1.2% | 0.7±3.8% | -30.7±19.4% | 11.1±5.1% |  |  |  | 
10 | C=C(C)C1CCC2(C(=O)NC(CC(=O)O)C(=O)O)CCC3(C)C(CCC4C5(C)CCC(=O)C(C)(C)C5CCC43C)C12 [Compound 27, L-aspartyl amide of betulonic acid] |  | 9.3±1.0% | 3.1±4.6% | 38.2±15.5% | -1.2±0.4% | 12.7±3.3% | 44.2±3.8% | 10.9±1.3% |  |  |  | 
11 | C=C(C)[C@@H]1CC[C@]2(C#N)CC[C@]3(C)[C@H](CC[C@@H]4[C@@]5(C)CC[C@H](OC(C)=O)C(C)(C)[C@@H]5CC[C@]43C)[C@@H]12 [Compound 33] |  | 11.4±4.2% | -4.6±3.3% | 49% and 49.2±2.2% | 3.6±3.9% | 20.5±52.1% | -51.2±39.1% | 21.6±17.0% |  |  |  | 
12 | Gentamycin [reference compound] |  |  |  |  |  |  |  |  | (0.5 µg/mL) | (2 µg/mL) | (8 µg/mL) | 
13 | C[C@@H]1[C@H](O)[C@@H](C)/C=C/C=C/C=C/C=C/C=C/C=C/C=C/[C@H](O[C@@H]2O[C@H](C)[C@@H](O)[C@H](N)[C@@H]2O)C[C@@H]2O[C@](O)(C[C@@H](O)C[C@@H](O)[C@H](O)CC[C@@H](O)C[C@@H](O)CC(=O)O[C@H]1C)C[C@H](O)[C@H]2C(=O)O [Amphotericin B, reference compound] |  |  |  |  |  |  |  |  |  |  |  | 2 µg/mL (≈ 2.16 µM)
14 | C=C(C)[C@@H]1CC[C@]2(C(=O)OC)CC[C@]3(C)[C@H](CC[C@@H]4[C@@]5(C)CCC(=O)C(C)(C)[C@@H]5CC[C@]43C)[C@@H]12 [Compound 25, methyl ester of betulonic acid] |  | 11.4±3.9% | -3.3±1.4% |  | 2.3±0.3% | 2.5±1.3% | -30.0±17.3% | 23.0±4.0% |  |  |  | 
